pEC50: −log10 of the molar value.
Columns and labels:
human TRPM8 = target: T1, human TRPM8 (Homo sapiens, UniProt Q7Z2W7); assay: Evaluation of human TRPM8 activity (cool-feeling intensity), calcium fluorescence in stable expression cells; type: cell-based; conditions: Fluo4-AM, 32° C., read-out: EC50 value in TRPM8 activation action
T1 construct: The full-length human TRPM8 gene was amplified from plasmid RC220615 (manufactured by Origene) using a PCR method; host or cells: Flp-In T-REx 293 cells ('Flp-In293293 cells' [sic]), pcDNA5/FRT/TO, doxycycline-induced
T1 sequence (Q7Z2W7 whole entry): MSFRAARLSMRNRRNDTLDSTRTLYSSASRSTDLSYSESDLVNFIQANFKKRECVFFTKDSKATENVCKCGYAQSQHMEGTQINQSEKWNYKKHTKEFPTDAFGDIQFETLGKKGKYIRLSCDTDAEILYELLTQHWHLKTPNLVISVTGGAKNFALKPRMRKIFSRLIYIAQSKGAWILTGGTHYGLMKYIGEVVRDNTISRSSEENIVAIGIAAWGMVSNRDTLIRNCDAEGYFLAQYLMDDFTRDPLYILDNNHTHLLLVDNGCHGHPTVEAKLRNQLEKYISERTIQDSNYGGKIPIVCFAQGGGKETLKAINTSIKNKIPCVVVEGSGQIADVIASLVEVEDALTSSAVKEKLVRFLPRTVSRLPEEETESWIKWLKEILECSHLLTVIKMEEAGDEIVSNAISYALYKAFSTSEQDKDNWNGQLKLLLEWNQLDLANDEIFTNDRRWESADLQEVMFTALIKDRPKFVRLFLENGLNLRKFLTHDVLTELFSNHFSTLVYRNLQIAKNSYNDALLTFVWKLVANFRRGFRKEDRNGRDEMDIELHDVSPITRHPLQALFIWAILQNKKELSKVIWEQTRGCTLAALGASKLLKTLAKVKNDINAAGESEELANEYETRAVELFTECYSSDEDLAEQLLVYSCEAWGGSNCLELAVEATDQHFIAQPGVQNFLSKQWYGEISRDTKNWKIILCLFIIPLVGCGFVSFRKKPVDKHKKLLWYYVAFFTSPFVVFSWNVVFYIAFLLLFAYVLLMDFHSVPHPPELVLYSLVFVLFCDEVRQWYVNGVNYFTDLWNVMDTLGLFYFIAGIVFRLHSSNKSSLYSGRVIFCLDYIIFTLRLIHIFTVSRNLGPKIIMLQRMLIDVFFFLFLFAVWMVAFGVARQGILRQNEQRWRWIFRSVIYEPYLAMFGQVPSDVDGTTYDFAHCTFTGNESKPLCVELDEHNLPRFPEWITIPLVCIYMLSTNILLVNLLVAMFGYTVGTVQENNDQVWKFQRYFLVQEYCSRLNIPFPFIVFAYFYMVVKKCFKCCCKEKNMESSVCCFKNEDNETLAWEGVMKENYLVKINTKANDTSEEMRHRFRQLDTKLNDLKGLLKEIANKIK
Description: It is common that a compound having a cooling effect such as menthol generally induces a cool-feeling by activating melastatin transient receptor potential channel 8 (TRPM8) as a cold stimulation receptor (for example, see J. Neurobiol. (2004), Vol. 61, PP. 3-12). Therefore, in order to evaluate the cool-feeling intensity, EC50 values of the exemplary compounds obtained in the Examples in TRPM8 activation actions were evaluated according to the following procedures.
The full-length human TRPM8 gene was amplified from plasmid RC220615 (manufactured by Origene) using a PCR method. The obtained PCR product was subcloned into pcDNA5/FRT/TO (manufactured by Thermo Fisher Scientific K.K.), and then it was introduced into Flp-In293293 cells (manufactured by Thermo Fisher Scientific K.K.) by using a Flp-InT-REx system (manufactured by Thermo Fisher Scientific K.K.), so that a human TRPM8 stable expression cell line was prepared.
The cultured human TRPM8 stable expression cells were seeded at a ratio of 50,000 cells/well to a poly-D-lysine-coated 96-well microplate (manufactured by Corning Incorporated), 1 μg/mL of doxycycline (manufactured by Takara Bio Inc.) was added thereto, and then the seeded cells were cultured at 37° C. for one night, so that the expression of the human TRPM8 was induced.
The culture solution was replaced with a buffer solution, and then, a fluorescent calcium indicator (Fluo4-AM: manufactured by Dojindo) was added thereto, the cells were incubated at 37° C. for 30 minutes, and they were transferred to a fluorescent microplate reader (FlexStation3: Molecular Devices, LLC.). Exemplary compounds were added in a final concentration range of 0.1 μM to 1000 μM, and the changes in fluorescence having a wavelength of 525 nm when excited at a wavelength of 485 nm were measured at a device temperature of 32° C., so as to calculate EC50 values.

[1] = Sensory evaluation of 30 ppm aqueous solution by three flavorists; type: in vivo, human; conditions: for intensity of cool-feeling: mouth rinsed and spat out; for intensity of cool-feeling compared with comparative compounds: 30 ppm aqueous solutions
Description: The sensory evaluation was performed by comparing the exemplary compound (1-1) with the so far known comparative compounds 1 to 4. Comparative compounds 1, 3, and 4 were synthesized according to the method described in WO 2016/153011 A1, and comparative compound 2 was synthesized according to the method described in WO 2005/020897 A1. The exemplary compound (1-1) and comparative compounds 1 to 4 were separately prepared into a 30 ppm aqueous solution, and the aqueous solution was used to perform the evaluation.
The evaluation was performed by three flavorists. The aqueous solution was taken into the mouth and spat out after the mouth was rinsed, and intensity, persistence, and quality of a cool-feeling in the oral cavity were evaluated.
A 30 ppm aqueous solution of the exemplary compound (1-2) was prepared and used to perform the evaluation.
A 30 ppm aqueous solution of the exemplary compound (1-3) was prepared and used to perform the evaluation.
A 30 ppm aqueous solution of the exemplary compound (1-5) was prepared and used to perform the evaluation.

Compound	pEC50 (human TRPM8)	melting point [°C]	further results
CC(=O)OC(CNC(=O)C1CC(C)(C)CCC1C(C)C)c1ccccc1 (stereo not shown) [1-4]	6.27		
CC(C)C1CCC(C)(C)CC1C(=O)NC[C@@H](C)c1ccccc1 (stereo partly shown) [1-7]	6.26		
CC(C)C1CCC(C)(C)CC1C(=O)NC[C@@H](O)c1ccccc1 (stereo partly shown) [1-2]	7.62		
CC(C)C1CCC(C)(C)CC1C(=O)NC[C@H](O)c1ccccc1 (stereo partly drawn) [Exemplary Compound 1-3, N—((R)-2-hydroxy-2-phenylethyl)-2-isopropyl-5,5-dimethyl cyclohexane carboxamide]			persistence: cool-feeling lasted for ([1]; 30 ppm aqueous solution): ≥ 60 min; start of the cool-feeling ([1]; 30 ppm aqueous solution): strong cool-feeling was felt when the exemplary compound (1-3) was put in the mouth; intensity of cool-feeling ([1]; 30 ppm aqueous solution): very strong
CC(C)C1CCC(C)(C)CC1C(=O)NC[C@H](O)c1ccccc1 (stereo partly shown) [1-3]	7.13		
CC(C)C1CCC(C)(C)CC1C(=O)NC[C@@H](O)c1ccccc1 (stereo partly drawn) [Exemplary Compound 1-2, N—((S)-2-hydroxy-2-phenylethyl)-2-isopropyl-5,5-dimethyl cyclohexane carboxamide]			persistence: cool-feeling lasted for ([1]; 30 ppm aqueous solution): ≥ 90 min; start of the cool-feeling ([1]; 30 ppm aqueous solution): strong cool-feeling was felt when the exemplary compound (1-2) was put in the mouth; intensity of cool-feeling ([1]; 30 ppm aqueous solution): very strong
CC(C)C1CCC(C)(C)CC1C(=O)NCC(O)c1ccccc1 (stereo not shown) [Exemplary Compound 1-1, N-(2-hydroxy-2-phenylethyl)-2-isopropyl-5,5-dimethyl cyclohexane carboxamide]			persistence: cool-feeling lasted for ([1]; 30 ppm aqueous solution): ≥ 60 min; start of the cool-feeling ([1]; 30 ppm aqueous solution): clearly faster than the comparative compounds 1 to 4; intensity of cool-feeling ([1]; 30 ppm aqueous solution): very strong; intensity of cool-feeling compared with comparative compounds [1]: clearly stronger than those of the comparative compounds 3 and 4
CC(C)[C@@H]1CC[C@@H](C)CC1C(=O)NCC(O)c1ccccc1 (stereo partly shown) [Comparative compound 2, reference compound]			persistence of cool-feeling ([1]; 30 ppm aqueous solution): persistent; intensity of cool-feeling ([1]; 30 ppm aqueous solution): very strong; intensity of cool-feeling compared with comparative compounds [1]: same cooling intensity and persistence as those of the exemplary compound (1-1)
CC(C)C1CCC(C)(C)CC1C(=O)NCC(=O)c1ccccc1 (stereo not shown) [1-5]	6.83		
CC(C)C1CCC(C)(C)CC1C(=O)NCC(=O)c1ccccc1 (stereo not shown) [Exemplary Compound 1-5, 2-isopropyl-5,5-dimethyl-N-(2-oxo-2-phenylethyl) cyclohexane carboxamide]		85 to 88	persistence: cool-feeling lasted for ([1]; 30 ppm aqueous solution): ≥ 60 min; start of the cool-feeling ([1]; 30 ppm aqueous solution): gradually felt strongly; intensity of cool-feeling ([1]; 30 ppm aqueous solution): very strongly at the peak time
CC(C)C1CCC(C)(C)CC1C(=O)NCC(O)c1ccccc1 (stereo not shown) [1-1]	7.39		

Continued, in another order:

pEC50 (human TRPM8)	melting point [°C]	Compound	further results
	90 to 93	CC(C)C1CCC(C)(C)CC1C(=O)NCCc1ccccc1 (stereo not shown) [Exemplary Compound 1-13, 2-isopropyl-5,5-dimethyl-N-phenylethyl cyclohexane carboxamide]	
7.30		CC(C)C1CCC(C)(C)CC1C(=O)NCCc1ccccc1 (stereo not shown) [1-13]	
	125 to 133	CC(C)C1CCC(C)(C)CC1C(=O)NC[C@@H](C)c1ccccc1 (stereo partly drawn) [Exemplary Compound 1-7, 2-isopropyl-5,5-dimethyl-N—((S)-2-phenylpropyl) cyclohexane carboxamide]	
6.41		CC(CNC(=O)C1CC(C)(C)CCC1C(C)C)c1ccccc1 (stereo not shown) [1-6]	
6.80		COc1ccc(CCNC(=O)C2CC(C)(C)CCC2C(C)C)cc1 (stereo not shown) [1-10]	
7.53		CC(C)C1CCC(C)(C)CC1C(=O)NCCc1ccc(O)cc1 (stereo not shown) [1-9]	
	183 to 190	CC(C)C1CCC(C)(C)CC1C(=O)NCCc1ccc(O)cc1 (stereo not shown) [Exemplary Compound 1-9, N-(4-hydroxyphenylethyl)-2-isopropyl-5,5-dimethyl cyclohexane carboxamide]	
	86 to 88	COc1ccc(CCNC(=O)C2CC(C)(C)CCC2C(C)C)cc1 (stereo not shown) [Exemplary Compound 1-10, 2-isopropyl-N-(4-methoxyphenylethyl)-5,5-dimethyl cyclohexane carboxamide]	
6.39		COc1ccc(CCNC(=O)C2CC(C)(C)CCC2C(C)C)cc1OC (stereo not shown) [1-12]	
6.21		CC(C)C1CCC(C)(C)CC1C(=O)NC[C@H](C)c1ccccc1 (stereo partly shown) [1-8]	
	85 to 89	COc1ccc(CCNC(=O)C2CC(C)(C)CCC2C(C)C)cc1OC (stereo not shown) [Exemplary Compound 1-12, N-(3,4-dimethoxyphenylethyl)-2-isopropyl-5,5-dimethyl cyclohexane carboxamide]	
	127 to 134	CC(C)C1CCC(C)(C)CC1C(=O)NC[C@H](C)c1ccccc1 (stereo partly drawn) [Exemplary Compound 1-8, 2-isopropyl-5,5-dimethyl-N—((R)-2-phenylpropyl) cyclohexane carboxamide]	
6.95		CC(C)C1CCC(C)(C)CC1C(=O)NCCc1ccc(O)c(O)c1 (stereo not shown) [1-11]	
	80 to 85	CC(CNC(=O)C1CC(C)(C)CCC1C(C)C)c1ccccc1 (stereo not shown) [Exemplary Compound 1-6, 2-isopropyl-5,5-dimethyl-N-(2-phenylpropyl) cyclohexane carboxamide]	
